From patent publication US8211436B2, “Anticancer vaccine and diagnostic methods and reagents” (University of Pittsburgh—Of the Commonwealth System of …, priority 2001, dated 2012)
Each block holds one sequence with its values, some of them ahead of it.

Assays:
HLA-A2.1 = biological target: T1, HLA-A2.1 (Homo sapiens, UniProt P04439, D140Y/D185E/D98H/E176V/E277Q/G131W/G231S/I119V/I121R/I166T/I218V/L300P/L318F/N151K/N90K/P208A/P217A/Q86G/Q94H/R138H/R169H/T345S); assay: HLA Class I stabilization assay on T2 cells; conditions: 20 mg/ml peptide, 18-20 hours, MA2.1 staining, >1 indicates binding
T1 construct: Peptide-induced stabilization of HLA-A2.1 molecules on T2 cells; endogenous in cells; host or cells: T2 cells
Protocol: HLA Class I stabilization assays. Peptide-induced stabilization of HLA-A2.1 molecules on T2 cells was done as previously described (Zeh et al., Hum. Immunol., 39(2), 79-86 (1994)). 2×10^5 T2 cells were incubated with […] of the indicated synthetic peptides in […] human B2m (Calbiochem, La Jolla, Calif.) for 18-20 hours at room temperature. The cells were then stained with the HLA-A2.1-specific antibody, MA2.1, for 45 minutes, washed with FACS Buffer (PBS, 5% FBS, and 0.01% sodium azide), and stained with a secondary FITC-conjugated anti-IgG antibody (Biosource International, Camarillo, Calif.). The cells were fixed in 4% formaldehyde prior to flow cytometry analysis. The negative control consisted of T2 cells without peptide. […] (SEQ ID NO:11). Flow cytometric analysis was done using a FACScan flow cytometer (Becton-Dickinson).

[1] = system: CD8+ T cells from an HLA-A*0201 healthy donor; assay: IFN-γ ELISPOT, naive CD8+ T cells of a healthy donor primed in vitro to synthetic cyclin B1 peptides; type: cell-based, human; conditions: for antigen-specific IFN-γ secretion by CD8+ T cells: healthy HLA-A2.1+ donor, after several rounds of restimulation (fourth)
Protocol: (§1) IFN-γ ELISPOT Assays. IFN-g ELISPOT assays were conducted as previously described (Herr et al., J. Immunol. Methods, 191(2), 131-42 (1996)). Briefly, nitrocellulose plates (Millipore, Bedford, Mass.) were coated with the anti-IFN-γ capture mAb 1-D1K (MabTech, Stockholm, Sweden) overnight at 4° C. For assays using dendritic cells as APCs, DCs were loaded with […] of the indicated peptides for 2-6 hrs, and mixed with autologous T cells at a DC:T ratio of 1:10 for 20 hours at 37° C. For assays using autologous PBMCs as APCs, PBMCs were irradiated at 3000 Rads, loaded with […] of peptides for 4 hours, and mixed with autologous T cells at an APC:T ratio of 1:5 for 40 hours at 37° C. The T cells were seeded at 3×10^3-1×10^5 cells/well. All assays were done in serum-free AIM-V medium (Gibco Life Technologies, Grand Island, N.Y.). The plates were then washed in PBS+0.1% Tween and stained with anti-IFN-γ mAb 7-B6-1 (Mabtech) for 2 hours at 37° C. The plates were washed, and the avidin-peroxidase complex (Vectastain ABC Kit, Vector Laboratories) was added to the plates for 1 hour. The plates were then developed using AEC (Sigma) substrate, and spots were quantified microscopically with an inverted phase-contrast microscope (Carl Zeiss, Hallbergmoos, Germany) along with a computer-assisted image analysis system (KS ELISPOT). For HLA Class I blocking experiments, the W6/32 antibody was added to the APCs for 30-45 minutes prior to the incubation with the T cells.
(§2) Priming naïve CD8^+ T cells from a healthy donor to cyclin B1 peptides in vitro. Naïve CD8^+ T cells and in vitro generated dendritic cells were purified as described above in Example 1. 2×10^4 dendritic cells were loaded overnight with […]/well peptide in 96-well U-bottom plates (Falcon, Franklin lakes, NJ) and mixed with 2×10^5 autologous naïve CD8^+ T cells the next day in the presence of 2 ng/ml IL-1b (R & D Systems, Minneapolis, Minn.), 20 U/ml IL-2 (DuPont, Wilmington, Del.), and 10 U/ml IL-4 (Schering Plough). Depending on growth kinetics, T cells were fed every 3-4 days with 10 U/ml IL-2 and 5 U/ml IL-4. T cells were restimulated every 7-10 days using peptide-loaded autologous macrophages.

[2] = system: PBMCs from HLA-A2+ breast cancer patients; assay: IFN-γ ELISPOT, PBMCs of breast cancer patients with cyclin B1 peptides; type: cell-based, human
Protocol: as §1
(§3) Stimulating CD8^+ T cells from breast cancer and SCCHN patients with cyclin B1 peptides in vitro. PBMCs from cancer patients were X-irradiated at 3000 Rads, loaded with […] of the indicated peptides for 2-4 hours, and mixed with autologous PBMCs in the presence of 20 U/ml IL-2 (DuPont). The T cell cultures were fed every 3-4 days with 10 U/ml IL-2, and restimulated every 10-12 days, if necessary, using peptide-loaded autologous irradiated PBMCs. All T cell cultures were grown in RPMI medium (ICN, Costa Mesa, Calif.) supplemented with 10% human AB sera (Gemini Products, Calabasas, Calif.), L-glutamine, and penicillin/streptomycin (Life Technologies).

[3] = system: PBMCs from HLA-A*0201 SCCHN patients; assay: IFN-γ ELISPOT, PBMCs of SCCHN patients with cyclin B1 peptides; type: cell-based, human; conditions: for peptide-specific T cells, IFN-γ ELISPOT: SCCHN Patient A, absence of any in vitro stimulation; for HLA Class I-restricted T cell response, IFN-γ ELISPOT: SCCHN Patient B; for T cell response, IFN-γ ELISPOT: SCCHN Patient D; for blocking of the response with anti-Class I antibody: SCCHN Patient C
Protocol: as §1, §3

MS-A2/CD80 tumor = assay: CTL assay, peptide-sensitized T cells against MS-A2/CD80; type: cell-based, human; conditions: SCCHN Patient A T cells, target MS-A2/CD80
Protocol: as §3
(§4) Cytotoxicity assays. 1-2×10^6 target cells were labeled with 50 mCi of Na2^51CrO4 (Amersham, Arlington Heights, Ill.) for 90 minutes at 37° C. The labeled cells were then washed three times and plated at 1×10^3 cells/well in a 96-well V-bottom plate (Costar, Cambridge, Mass.) with various numbers of effector T cells. […] Supernatants were harvested using a Skatron harvesting press (Skatron Instruments, Sterling, Va.) and counted on a Cobra II series auto gamma counting system (Packard, Meriden, Conn.). […] Percent specific lysis was calculated from the following formula: % specific lysis=100×(experimental release−spontaneous release)/(maximum release−spontaneous release).

MS-A2 tumor = assay: CTL assay, peptide-sensitized T cells against MS-A2; type: cell-based, human; parameters: killing of the original tumor by peptide-specific T cells: dose or concentration left out as unconfirmed
Protocol: as §2
Stimulating CD8^+ T cells from breast cancer and SCCHN patients with cyclin B1 peptides in vitro. PBMCs from cancer patients were X-irradiated at 3000 Rads, loaded with […] of the indicated peptides for 2-4 hours, and mixed with autologous PBMCs in the presence of 20 U/ml IL-2 (DuPont). […]
Cytotoxicity assays. […] Supernatants were harvested using a Skatron harvesting press (Skatron Instruments, Sterling, Va.) and counted on a Cobra II series auto gamma counting system (Packard, Meriden, Conn.). […] Percent specific lysis was calculated from the following formula: % specific lysis=100×(experimental release−spontaneous release)/(maximum release−spontaneous release).

K562 = assay: CTL assay, peptide-sensitized T cells against K562 (LAK control); type: cell-based, human; conditions: SCCHN Patient A T cells, target K562
Protocol: as §3, §4

[4] = breast cancer Patient A, one in vitro stimulation
[5] = breast cancer Patient C, no in vitro stimulation
[6] = breast cancer Patient D, no in vitro stimulation

Sequence: AGYLMELCC (cyclin-derived polypeptide) [SEQ ID NO:4, tumor-derived cyclin B1 9-mer peptide]
HLA-A2.1 Binding (MFI of T2 cells loaded with peptide / MFI of T2 cells with no peptide) (HLA-A2.1): 1.61 X-Fold increase
antigen-specific IFN-γ secretion by CD8+ T cells [1]: detected
blocking of the T cell response by anti-Class I antibody W6/32 ([1]; healthy donor): blocked
T cell response, IFN-γ ELISPOT [2, 4]: strong HLA Class I-restricted secondary T cell responses
T cell response, IFN-γ ELISPOT [2, 5]: peptide-specific HLA Class I-restricted T cell responses
T cell response, IFN-γ ELISPOT [2, 6]: strong HLA Class I-restricted T cell responses
T cell response, IFN-γ ELISPOT ([2]; breast cancer Patients E and F): did not respond
peptide-specific T cells, IFN-γ ELISPOT [3]: peptide-specific T cells also were detected
HLA Class I-restricted T cell response, IFN-γ ELISPOT [3]: HLA Class I-restricted T cell responses
T cell response, IFN-γ ELISPOT [3]: appeared specific
lysis of tumor by T cells sensitized to the peptide (MS-A2/CD80 tumor): able to lyse
lysis of tumor by T cells sensitized to the peptide (MS-A2 tumor; SCCHN Patient A T cells, target MS-A2): to a lesser extent
killing of the original tumor by peptide-specific T cells (MS-A2 tumor; healthy donor T cells primed with high peptide concentration): unable to kill the original tumor
lysis by T cells sensitized to the peptide (K562): not

HLA-A2.1 Binding (MFI of T2 cells loaded with peptide / MFI of T2 cells with no peptide) (HLA-A2.1): 1.42 X-Fold increase
Sequence: AGYLMELCF (cyclin-derived polypeptide) [SEQ ID NO:3, tumor-derived cyclin B1 9-mer peptide]
HLA Class I-restricted T cell response, IFN-γ ELISPOT [3]: HLA Class I-restricted T cell responses

Sequence: AGYLMELCFA (cyclin-derived polypeptide) [SEQ ID NO:6, tumor-derived cyclin B1 10-mer peptide]
HLA-A2.1 Binding (MFI of T2 cells loaded with peptide / MFI of T2 cells with no peptide) (HLA-A2.1): 2.08 X-Fold increase
antigen-specific IFN-γ secretion by CD8+ T cells [1]: not

Sequence: AGYLMELCM (cyclin-derived polypeptide) [SEQ ID NO:2, tumor-derived cyclin B1 9-mer peptide]
HLA-A2.1 Binding (MFI of T2 cells loaded with peptide / MFI of T2 cells with no peptide) (HLA-A2.1): 1.48 X-Fold increase
antigen-specific IFN-γ secretion by CD8+ T cells [1]: not
HLA Class I-restricted T cell response, IFN-γ ELISPOT [3]: not
blocking of the response with anti-Class I antibody [3]: could be blocked

Sequence: AGYLMELCMA (cyclin-derived polypeptide) [SEQ ID NO:5, tumor-derived cyclin B1 10-mer peptide]
HLA-A2.1 Binding (MFI of T2 cells loaded with peptide / MFI of T2 cells with no peptide) (HLA-A2.1): 1.58 X-Fold increase
antigen-specific IFN-γ secretion by CD8+ T cells [1]: not
T cell response, IFN-γ ELISPOT [3]: appeared specific

Sequence: AGYLMELCV (cyclin-derived polypeptide) [SEQ ID NO:1, tumor-derived cyclin B1 9-mer peptide]
HLA-A2.1 Binding (MFI of T2 cells loaded with peptide / MFI of T2 cells with no peptide) (HLA-A2.1): 1.60 X-Fold increase
antigen-specific IFN-γ secretion by CD8+ T cells [1]: not
T cell response, IFN-γ ELISPOT ([2]; breast cancer Patient B (HLA-A*0206), two in vitro stimulations): weak secondary response
HLA Class I-restricted T cell response, IFN-γ ELISPOT [3]: not

HLA-A2.1 Binding (MFI of T2 cells loaded with peptide / MFI of T2 cells with no peptide) (HLA-A2.1): 2.28 X-Fold increase
Sequence: AKYLMELTM (cyclin-derived polypeptide) [SEQ ID NO:7, human (HeLa) cyclin B1 peptide from the database]
T cell response, IFN-γ ELISPOT [2, 4]: strong HLA Class I-restricted secondary T cell responses
T cell response, IFN-γ ELISPOT [2, 5]: peptide-specific HLA Class I-restricted T cell responses
blocking of the response by anti-MHC Class I antibody ([2]; breast cancer Patient D): blocked
T cell response, IFN-γ ELISPOT [2, 6]: lower responses
T cell response, IFN-γ ELISPOT ([2]; breast cancer Patients E and F): did not respond
peptide-specific T cells, IFN-γ ELISPOT [3]: peptide-specific T cells also were detected
HLA Class I-restricted T cell response, IFN-γ ELISPOT [3]: HLA Class I-restricted T cell responses
T cell response, IFN-γ ELISPOT [3]: appeared specific
lysis of tumor by T cells sensitized to the peptide (MS-A2/CD80 tumor): able to lyse

HLA-A2.1 Binding (MFI of T2 cells loaded with peptide / MFI of T2 cells with no peptide) (HLA-A2.1): 2.25 X-Fold increase
Sequence: AKYLMELTML (cyclin-derived polypeptide) [SEQ ID NO:8, human (HeLa) cyclin B1 peptide from the database]
T cell response, IFN-γ ELISPOT [2, 4]: strong HLA Class I-restricted secondary T cell responses
blocking of the response with anti-Class I antibody [3]: could be blocked

Sequence: ILKEPGSHV (HIV-POL-derived polypeptide) [reference compound]
antigen-specific IFN-γ secretion by CD8+ T cells [1]: not
T cell response, IFN-γ ELISPOT [2, 4]: no recognition
T cell response, IFN-γ ELISPOT [2, 6]: lower responses
